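Compound exposure: 48 hours, 5 concentrations, 96-well plates. At the GI50, growth is halved.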 The source made the active and inactive calls. Rule as the data show it: active = GI50 up to about 1.1 µM and inactive = higher.
Experiments:
Assay in all cases: DTP human tumour cell line panel, 48 h
A498 = tested on: A498
Malme-3M = tested on: Malme-3M
EKVX = tested on: EKVX
MCF7 = tested on: MCF7
T47D = tested on: T47D
SNB-75 = tested on: SNB-75
HOP-92 = tested on: HOP-92
HOP-62 = tested on: HOP-62
UACC-62 = tested on: UACC-62
SK-MEL-2 = tested on: SK-MEL-2
HT-29 = tested on: HT-29
KM12 = tested on: KM12
CCRF-CEM = tested on: CCRF-CEM
HCC 2998 = tested on: HCC 2998
OVCAR-8 = tested on: OVCAR-8
M14 = tested on: M14
MDA-MB-231 = tested on: MDA-MB-231
DU-145 = tested on: DU-145
RPMI-8226 = tested on: RPMI-8226
NCI-H522 = tested on: NCI-H522

Row | Compound | GI50 (A498) | GI50 (Malme-3M) | GI50 (EKVX) | GI50 (MCF7) | GI50 (T47D) | GI50 (SNB-75) | GI50 (HOP-92) | GI50 (HOP-62) | GI50 (UACC-62) | GI50 (SK-MEL-2) | GI50 (HT-29) | GI50 (KM12) | GI50 (CCRF-CEM) | GI50 (HCC 2998) | GI50 (OVCAR-8) | GI50 (M14) | GI50 (MDA-MB-231) | GI50 (DU-145) | GI50 (RPMI-8226) | GI50 (NCI-H522)
1 | CCC(O)CC1OC2(CCC1C)CC1OC(=O)/C=C\C(C)(O)C(O)C(C)C(O)C(OC3CC(OC)C(O)C(C)O3)C(O)C(C)(O)CCC/C=C/C3CC(C)COC3(O)CC(O2)C1C (stereo not drawn) | 3.82 µM (inactive) | 10.7 µM (inactive) | < 0.01 µM (active) | < 0.01 µM (active) | < 0.0107 µM (active) | 2.37 µM (inactive) | 25.6 µM (inactive) | 2.93 µM (inactive) | 9.04 µM (inactive) | 4.98 µM (inactive) | 12 µM (inactive) | 2.43 µM (inactive) | 0.23 µM (active) | 15.7 µM (inactive) | < 0.0111 µM (active) | 6.97 µM (inactive) | 12 µM (inactive) | 2.67 µM (inactive) | < 0.01 µM (active) | –
2 | N#CC1(C#N)NC(c2cccnc2)C(C#N)(C#N)NC1c1cccnc1 (stereo not drawn) | > 100 µM (inactive) | > 100 µM (inactive) | > 100 µM (inactive) | > 100 µM (inactive) | > 100 µM (inactive) | 47.9 µM (inactive) | > 100 µM (inactive) | > 100 µM (inactive) | > 100 µM (inactive) | > 100 µM (inactive) | > 100 µM (inactive) | > 100 µM (inactive) | > 100 µM (inactive) | > 100 µM (inactive) | > 100 µM (inactive) | > 100 µM (inactive) | > 100 µM (inactive) | > 100 µM (inactive) | > 100 µM (inactive) | –
3 | CC(C)(Cc1ccccc1)NC1=NCCO1 | > 100 µM (inactive) | > 100 µM (inactive) | > 100 µM (inactive) | > 100 µM (inactive) | > 10 µM (inactive) | 35.2 µM (inactive) | > 100 µM (inactive) | – | > 100 µM (inactive) | > 100 µM (inactive) | > 100 µM (inactive) | > 100 µM (inactive) | > 100 µM (inactive) | > 100 µM (inactive) | > 100 µM (inactive) | > 100 µM (inactive) | > 100 µM (inactive) | > 100 µM (inactive) | > 100 µM (inactive) | > 100 µM (inactive)
4 | C=CCNC(=S)N/C=C(\C#N)C(N)=O | > 100 µM (inactive) | > 100 µM (inactive) | > 100 µM (inactive) | > 100 µM (inactive) | > 100 µM (inactive) | > 100 µM (inactive) | – | > 100 µM (inactive) | > 100 µM (inactive) | > 100 µM (inactive) | > 100 µM (inactive) | > 100 µM (inactive) | > 100 µM (inactive) | > 100 µM (inactive) | > 100 µM (inactive) | > 100 µM (inactive) | > 100 µM (inactive) | > 100 µM (inactive) | > 100 µM (inactive) | > 100 µM (inactive)
5 | CC(=O)O[C@H]1C(=O)[C@@]2(C)[C@H]([C@H](OC(=O)c3ccccc3)[C@]3(O)C[C@H](OC(=O)[C@H](O)[C@@H](NC(=O)CC(C)C)c4ccccc4)C(C)=C1C3(C)C)[C@]1(OC(C)=O)CO[C@@H]1C[C@@H]2O | 0.247 µM (active) | 0.0135 µM (active) | 0.428 µM (active) | < 0.001 µM (active) | 0.00399 µM (active) | < 0.001 µM (active) | 0.508 µM (active) | 0.0221 µM (active) | 0.00475 µM (active) | 0.00239 µM (active) | < 0.001 µM (active) | – | 0.00198 µM (active) | 0.00303 µM (active) | 0.00548 µM (active) | – | > 10 µM (inactive) | 0.0232 µM (active) | < 0.001 µM (active) | 0.00247 µM (active)
6 | COC(=O)/N=[N+](\[O-])C(c1ccc(Cl)cc1)c1ccc(Cl)cc1 | 31.8 µM (inactive) | 51.9 µM (inactive) | 25.2 µM (inactive) | 33.9 µM (inactive) | 20.8 µM (inactive) | 27.9 µM (inactive) | – | – | 36.4 µM (inactive) | 34.1 µM (inactive) | 51.6 µM (inactive) | 32.2 µM (inactive) | 28.4 µM (inactive) | 32 µM (inactive) | 36.3 µM (inactive) | 31.3 µM (inactive) | 1.75 µM (inactive) | 29.1 µM (inactive) | 21.9 µM (inactive) | 32.6 µM (inactive)
7 | Nc1c(C(=O)c2ccc(Cl)c(Cl)c2)[nH]c(NCc2ccccc2)c1C(=S)Nc1ccccc1 | 15.3 µM (inactive) | 3.13 µM (inactive) | 14.7 µM (inactive) | 2.47 µM (inactive) | 16.5 µM (inactive) | 10 µM (inactive) | – | 17.3 µM (inactive) | 14.3 µM (inactive) | 12.4 µM (inactive) | 3.23 µM (inactive) | 3.18 µM (inactive) | – | 1.74 µM (inactive) | 14.7 µM (inactive) | 3.56 µM (inactive) | 4.73 µM (inactive) | 15.3 µM (inactive) | 2.65 µM (inactive) | 4.83 µM (inactive)
8 | C=CCOc1ccc(C2C(C(=O)OC)C(=O)CC(O)(c3ccccc3)C2C(=O)OC)cc1OC (stereo not drawn) | 22.8 µM (inactive) | 31.6 µM (inactive) | 62.7 µM (inactive) | 21.2 µM (inactive) | 20.8 µM (inactive) | 26.9 µM (inactive) | 18 µM (inactive) | 42.4 µM (inactive) | 27.4 µM (inactive) | 26.4 µM (inactive) | 42.2 µM (inactive) | 23.5 µM (inactive) | 30.9 µM (inactive) | 40.5 µM (inactive) | 19.7 µM (inactive) | – | 18.4 µM (inactive) | 51.6 µM (inactive) | – | 22.4 µM (inactive)
9 | COc1cc(C2CC(C)(N3CCCC3)Oc3cc4c(cc32)OCO4)cc(OC)c1OC (stereo not drawn) | 0.578 µM (active) | 0.21 µM (active) | 0.456 µM (active) | 0.0925 µM (active) | 5.55 µM (inactive) | 0.0865 µM (active) | 62.1 µM (inactive) | 0.335 µM (active) | – | 0.408 µM (active) | 0.165 µM (active) | 0.182 µM (active) | 0.184 µM (active) | 0.618 µM (active) | 0.524 µM (active) | 0.394 µM (active) | 0.145 µM (active) | 0.42 µM (active) | – | 0.2 µM (active)
10 | FC(F)(F)c1ccc2c(c1)nc(-c1ccc(Cl)cc1)n2CC1CCCN2CCCCC12 (stereo not drawn) | 14.2 µM (inactive) | 15.3 µM (inactive) | 9.91 µM (inactive) | 14.5 µM (inactive) | 16.7 µM (inactive) | 6.84 µM (inactive) | 12.8 µM (inactive) | 13.9 µM (inactive) | 14.8 µM (inactive) | 15.9 µM (inactive) | 4.98 µM (inactive) | 15.8 µM (inactive) | 10.8 µM (inactive) | 13.5 µM (inactive) | 15.6 µM (inactive) | 14 µM (inactive) | 7.33 µM (inactive) | 14.9 µM (inactive) | – | 13.2 µM (inactive)
11 | CCCc1n[nH]c(=O)n1N1C(=O)C=CC1=O | > 100 µM (inactive) | > 100 µM (inactive) | > 100 µM (inactive) | > 100 µM (inactive) | > 100 µM (inactive) | – | – | > 100 µM (inactive) | > 100 µM (inactive) | > 100 µM (inactive) | – | – | > 100 µM (inactive) | > 100 µM (inactive) | – | > 100 µM (inactive) | > 100 µM (inactive) | > 100 µM (inactive) | – | > 100 µM (inactive)
12 | COc1cccc(C2CC(=O)c3cccn32)c1 (stereo not drawn) | > 100 µM (inactive) | – | > 100 µM (inactive) | > 100 µM (inactive) | 50.2 µM (inactive) | > 100 µM (inactive) | > 100 µM (inactive) | > 100 µM (inactive) | > 100 µM (inactive) | > 100 µM (inactive) | > 100 µM (inactive) | > 100 µM (inactive) | > 100 µM (inactive) | > 100 µM (inactive) | > 100 µM (inactive) | > 100 µM (inactive) | 82.6 µM (inactive) | > 100 µM (inactive) | > 100 µM (inactive) | > 100 µM (inactive)
13 | COC1=C(OC)C(=O)C(Cc2c(Cl)nc3n2CCS3)=C(C)C1=O | 18.9 µM (inactive) | 7.83 µM (inactive) | 12.1 µM (inactive) | 12.9 µM (inactive) | 4.13 µM (inactive) | – | – | 15.6 µM (inactive) | 12.1 µM (inactive) | 14.6 µM (inactive) | 17 µM (inactive) | 14 µM (inactive) | 2.81 µM (inactive) | 16.5 µM (inactive) | 15.3 µM (inactive) | 13.1 µM (inactive) | 4.04 µM (inactive) | 17.2 µM (inactive) | 6.53 µM (inactive) | 11.6 µM (inactive)
14 | COc1cc(C2c3cc4c(cc3OC(NNS(=O)(=O)c3ccc(C)cc3)C2C)OCO4)cc(OC)c1O (stereo not drawn) | 7.98 µM (inactive) | 5.85 µM (inactive) | 11.7 µM (inactive) | 6.24 µM (inactive) | 10.1 µM (inactive) | 3.61 µM (inactive) | 14.5 µM (inactive) | 10.4 µM (inactive) | 15.2 µM (inactive) | – | 23.4 µM (inactive) | 8.81 µM (inactive) | 7.94 µM (inactive) | 23.7 µM (inactive) | 6.82 µM (inactive) | 15.6 µM (inactive) | 12.3 µM (inactive) | 33.8 µM (inactive) | 10.1 µM (inactive) | 25 µM (inactive)
15 | Cc1cc2c(-c3ccccc3)cc(=O)[nH]c2cc1N | > 100 µM (inactive) | – | > 100 µM (inactive) | > 100 µM (inactive) | > 100 µM (inactive) | > 100 µM (inactive) | > 100 µM (inactive) | > 100 µM (inactive) | > 100 µM (inactive) | > 100 µM (inactive) | > 100 µM (inactive) | > 100 µM (inactive) | > 100 µM (inactive) | > 100 µM (inactive) | > 100 µM (inactive) | > 100 µM (inactive) | > 100 µM (inactive) | > 100 µM (inactive) | > 100 µM (inactive) | –
